Test results taken from US12427163B2, “Anti-VTCN1 antibodies and antibody drug conjugates” (Bluefin BioMedicine, Inc., priority 2017, dated 2025).

How the values were obtained:
4T1 tumors = test: 4T1 mouse triple negative breast cancer model in Balb/C mice; type: in vivo
Experimental: 6-8 week-old Balb/C mice were injected with 0.1 million of 4T1 cells in the mammary fat pad. On day 5, mice were randomized to 4 treatment groups, PBS, 6D9 (10 mg/kg), Gemcitabine (75 mg/kg), and 6D9 (10 mg/kg) plus gemcitabine (75 mg/kg). All treatments were by intraperitoneal injection and mice received a total of 5 treatments on days 5, 8, 12, 14, and 16.
The tumors and lymph nodes were harvested from these mice, and cells were dissociated and subjected to immune cell profiling by flow cytometry analysis.

human monocytes = test: Cytokine treatment of monocytes, expression of VTCN1, PD-L1, CD80 by flow cytometry; type: cell-based; conditions: 24, 48, or 73 hours
Experimental: VTCN1 is expressed in monocytes and macrophages in a tumor microenviroment, the expression induced by cytokines in tumor microenviroment. VTCN1 positive macrophages inhibit T cell activation. Monocytes from healthy donors were treated with IFNγ and IL-6 to assess VTCN1 expression. Monocytes were enriched from fresh PBMC from healthy donor using a monocyte enrichment kit from Stemcell Technologies, and the purity of the obtained monocytes is greater than 95%. Monocytes were cultured in 24 well plate with different concentration of INFγ or LI-6 for 24, 48, or 73 hours, expression of VTCN1, PD-L1, and CD80 was assessed by flow cytometry. […] CD80 was expressed at low level in monocytes, and is not very responsive to cytokine treatment.

| Compound | 4T1 tumor growth (4T1 tumors; 6D9 10 mg/kg, gemcitabine 75 mg/kg, i.p., days 5, 8, 12, 14, 16) | tumor-free mice (complete response; CR) at end of study on day 65 (4T1 tumors; mouse, in vivo) | VTCN1 and PD-L1 expression in monocytes (human monocytes) |
| --- | --- | --- | --- |
| Nc1ccn([C@@H]2O[C@H](CO)[C@@H](O)C2(F)F)c(=O)n1 [Gemcitabine, gemcitabine] | totally inhibited tumor growth at the early stage of the study with tumor regrowth after 30 days | none of the mice in the gemcitabine alone group were tumor-free |  |
| IL6: cytokine added to human monocyte cultures |  |  | VTCN1 and PD-L1 expression was induced |
